# Measured values: PMC3740399, “Carfilzomib in multiple myeloma patients with renal impairment: pharmacokinetics and safety” (Leukemia, 2013)
# Tests used:
# [1] = system: relapsed and/or refractory multiple myeloma; test: Efficacy: best response (IMWG criteria with EBMT minimal response); type: in vivo, human; conditions: for Overall response rate: PR or better
# Method: Patients who received at least 1 cycle of carfilzomib and had at least one post-baseline assessment for disease response were included in the efficacy analysis. Each evaluable patient's best response to treatment over the course of the study was evaluated by the investigator and sponsor using the International Myeloma Working Group Uniform Response Criteria, modified to include minimal response defined per the European Group for Blood and Marrow Transplantation.[17], [18] Responses assessed by the investigators at the end of the study are reported here. The overall response rate was defined as the proportion of PR or better responses, and the 95% Clopper-Pearson exact binomial CI was calculated. The duration of response was calculated as the time from the first evidence of a PR or better until confirmation of disease progression. Median time to progression and progression-free survival were assessed among all patients with >stable disease (s.d.). For progression-free survival, deaths due to causes other than disease progression were censored.
# [2] = in vivo
# Method: Carfilzomib was administered by IV infusion over 2–10 min on days 1, 2, 8, 9, 15 and 16 of a 28-day cycle for up to 12 cycles. The dose of carfilzomib in Cycle 1 was 15 mg/m^2. If this dose was tolerated, it was increased to 20 mg/m^2 at Cycle 2, and to 27 mg/m^2 at Cycle 3 and for all subsequent cycles as tolerated.
# Blood for plasma PK analysis was collected on days 1 and 15 of Cycle 1, and on day 15 of Cycle 2, before dosing (t=0), at the end of dosing, and at 5, 15 and 30 min and 1, 1.5, 2, 4, 6 and 24 h after dosing; urine samples were collected cumulatively over 0–5 h and 5–24 h on days 1 and 15 of Cycle 1 following administration of carfilzomib to determine carfilzomib concentrations. Carfilzomib concentrations were determined using validated liquid chromatography tandem mass spectrometry (LC MS/MS) methods with a calibration range of 0.300–300 ng/ml for plasma samples and 4.0–2000 ng/ml for urine samples. Plasma concentration of carfilzomib versus time was plotted on days 1 and 15 in Cycle 1, and PK parameters were calculated using a non-compartmental constant infusion method using WinNonlin (Pharsight, Sunnyvale, CA, USA). To determine whether renal impairment affected the PK of carfilzomib, the relationship between renal function status and relevant PK parameters was evaluated. Statistical comparison (analysis of variance) of the ln-transformed dose-adjusted PK parameters was also performed between patients with normal renal function and each group of patients with renal impairment. For these parameters, 90% confidence intervals (CI) were calculated for the ratios between least squares of the mean (LSM) for each group versus the normal renal function group (Group 1). […] The primary PK parameters—apparent plasma clearance, dose-normalized AUCinf (total exposure), and the dose-normalized Cmax on day 1 and day 15 of Cycle 1—were also estimated as a function of CrCl by linear regression using a mixed-effects model (Y=β0+β1 × CrCl+β2 × Age+β3 × weight, where Y=PK parameter, β0 = intercept, and β1, β2 and β3 are slope parameters associated with CrCl, age and weight, respectively).
# [3] = All patients, n=28, patients who received dexamethasone ⩾20 mg before carfilzomib doses
# [4] = All patients, n=47, all patients with response assessment
# [5] = Group 1 (normal renal function), n=7, patients who received dexamethasone ⩾20 mg before carfilzomib doses
# [6] = Group 1 (normal renal function), n=11, all patients with response assessment
# [7] = Group 2 (mild impairment), n=8, patients who received dexamethasone ⩾20 mg before carfilzomib doses
# [8] = Group 2 (mild impairment), n=11, all patients with response assessment
# [9] = Group 3 (moderate impairment), n=4, patients who received dexamethasone ⩾20 mg before carfilzomib doses
# [10] = Group 3 (moderate impairment), n=9, all patients with response assessment
# [11] = Group 4 (severe impairment), n=5, patients who received dexamethasone ⩾20 mg before carfilzomib doses
# [12] = Group 4 (severe impairment), n=8, all patients with response assessment
# [13] = Group 5 (chronic dialysis), n=4, patients who received dexamethasone ⩾20 mg before carfilzomib doses
# [14] = Group 5 (chronic dialysis), n=8, all patients with response assessment
smiles,measurement,setting,value
CC(C)C[C@H](NC(=O)[C@H](CCc1ccccc1)NC(=O)CN1CCOCC1)C(=O)N[C@@H](Cc1ccccc1)C(=O)N[C@@H](CC(C)C)C(=O)[C@@]1(C)CO1 [carfilzomib],Minimal response,[1]; [3],3 (10.7) n (%)
same,Progressive disease,[1]; [3],5 (17.9) n (%)
same,Stable disease,[1]; [3],10 (35.7) n (%)
same,Very good PR,[1]; [3],0 n (%)
same,Overall response rate,"[1]; All patients, n=47",12 (25.5) n (%)
same,Complete response,[1]; [4],0 n (%)
same,Progressive disease,[1]; [4],10 (21.3) n (%)
same,Stable disease,[1]; [4],21 (44.7) n (%)
same,Very good PR,[1]; [4],0 n (%)
same,"Duration of response, median (95% CI)","[1]; All patients, NE, not estimated due to censoring",7.9 months
same,Complete response,[1]; [5],0 n (%)
same,Minimal response,[1]; [5],1 n (%)
same,Progressive disease,[1]; [5],0 n (%)
same,Stable disease,[1]; [5],3 (42.9) n (%)
same,Very good PR,[1]; [5],0 n (%)
same,Minimal response,[1]; [6],1 (9.1) n (%)
same,Progressive disease,[1]; [6],1 (9.1) n (%)
same,"Duration of response, median (95% CI)","[1]; Group 1 (normal renal function), NE, not estimated due to censoring",NE (2.0–NE)
same,Complete response,[1]; [7],0 n (%)
same,Minimal response,[1]; [7],1 (12.5) n (%)
same,Progressive disease,[1]; [7],3 (37.5) n (%)
same,Stable disease,[1]; [7],1 (12.5) n (%)
same,Very good PR,[1]; [7],0 n (%)
same,Overall response rate,"[1]; Group 2 (mild impairment), n=11",3 (27.3) n (%)
same,Complete response,[1]; [8],0 n (%)
same,Minimal response,[1]; [8],1 (9.1) n (%)
same,Stable disease,[1]; [8],3 (27.3) n (%)
same,Very good PR,[1]; [8],0 n (%)
same,"Duration of response, median (95% CI)","[1]; Group 2 (mild impairment), NE, not estimated due to censoring",NE (4.2–NE)
same,Complete response,[1]; [9],0 n (%)
same,Minimal response,[1]; [9],0 n (%)
same,Progressive disease,[1]; [9],0 n (%)
same,Stable disease,[1]; [9],3 (75.0) n (%)
same,Very good PR,[1]; [9],0 n (%)
same,Overall response rate,"[1]; Group 3 (moderate impairment), n=9",2 (22.2) n (%)
same,Complete response,[1]; [10],0 n (%)
same,Minimal response,[1]; [10],0 n (%)
same,Progressive disease,[1]; [10],3 (33.3) n (%)
same,Stable disease,[1]; [10],4 (44.4) n (%)
same,Very good PR,[1]; [10],0 n (%)
same,"Duration of response, median (95% CI)","[1]; Group 3 (moderate impairment), NE, not estimated due to censoring",NE (2.3–NE)
same,Complete response,[1]; [11],0 n (%)
same,Minimal response,[1]; [11],1 (20.0) n (%)
same,Progressive disease,[1]; [11],2 (40.0) n (%)
same,Stable disease,[1]; [11],2 (40.0) n (%)
same,Very good PR,[1]; [11],0 n (%)
same,Overall response rate,"[1]; Group 4 (severe impairment), n=8",2 (25.0) n (%)
same,Complete response,[1]; [12],0 n (%)
same,Minimal response,[1]; [12],1 (12.5) n (%)
same,Progressive disease,[1]; [12],2 (25.0) n (%)
same,Stable disease,[1]; [12],3 (37.5) n (%)
same,Very good PR,[1]; [12],0 n (%)
same,"Duration of response, median (95% CI)","[1]; Group 4 (severe impairment), NE, not estimated due to censoring",NE (7.9–NE)
same,"Duration of response, median (95% CI)",[1]; Group 5 (chronic dialysis),7.9 (6.5–8.5) months
same,Complete response,[1]; [13],0 n (%)
same,Minimal response,[1]; [13],0 n (%)
same,Progressive disease,[1]; [13],0 n (%)
same,Stable disease,[1]; [13],1 (25.0) n (%)
same,Very good PR,[1]; [13],0 n (%)
same,Overall response rate,"[1]; Group 5 (chronic dialysis), n=8",3 (37.5) n (%)
same,Complete response,[1]; [14],0 n (%)
same,Minimal response,[1]; [14],0 n (%)
same,Progressive disease,[1]; [14],0 n (%)
same,Stable disease,[1]; [14],4 (50.0) n (%)
same,Very good PR,[1]; [14],0 n (%)
same,Response improved to PR after the addition of dexamethasone,[1]; nine of 28 patients who received dexamethasone before each carfilzomib dose after Cycle 2,32.1%
same,Slope (95% CI) of linear regression of AUCinf as a function of creatinine clearance,[2],"0.012 (−0.030, 0.054)"
same,Slope (95% CI) of linear regression of AUClast (h·ng/ml) as a function of creatinine clearance,[2],"0.008 (−0.031, 0.048)"
same,Slope (95% CI) of linear regression of Cmax (ng/ml) as a function of creatinine clearance,[2],"0.225 (−0.242, 0.692)"
same,Slope (95% CI) of linear regression of carfilzomib clearance (l/h) as a function of creatinine clearance,[2],"−0.607 (−2.129, 0.914)"
same,CL,[2]; iv,110 L/h
same,median terminal half life (t1/2),[2]; iv,less than 60 min
